Laboratory results published in ChEMBL document CHEMBL1154579, “Novel cytotoxic diterpenes from Casearia arborea” (J Nat Prod, 2000).

Legend:
[1] = test system: SF-539; assay: Cytotoxicity against human SF539 cells after 2 days; format: functional, cell-based; conditions: SF-539, 48 h
[2] = test system: LOX IMVI; assay: Cytotoxicity against human LOX IMVI cells after 2 days; format: functional, cell-based; conditions: 48 h

SMILES	IC50 [1]	IC50 [2]
C=C/C(C)=C/C[C@]1(C)[C@H](C)CC[C@@]23C(=C[C@H](OC(=O)c4ccc(O)cc4)C[C@@H]12)[C@@H](OC(C)=O)O[C@H]3OC(C)=O [CASEARBORIN A]	290 nM	290 nM
C=C/C(C)=C/C[C@]1(C)[C@H](C)CC[C@@]23C(=C[C@H](OC(=O)c4ccc(O)c(OC)c4)C[C@@H]12)[C@@H](OC(C)=O)O[C@H]3OC(C)=O [CASEARBORIN B]	290 nM	290 nM
C=C/C(C)=C/C[C@]1(C)[C@H](C)C[C@H](OC(=O)c2ccc(O)cc2)[C@@]23C(=C[C@H](O)C[C@@H]12)[C@@H](OC(C)=O)O[C@H]3OC(C)=O [CASEARBORIN C]	290 nM	290 nM
C=C/C(C)=C/C[C@]1(C)[C@H](C)C[C@H](O)[C@@]23C(=C[C@H](OC(=O)c4ccc(O)cc4)C[C@@H]12)[C@@H](OC(C)=O)O[C@H]3OC(C)=O [CASEARBORIN D]	290 nM	290 nM
C=C/C(C)=C/C[C@]1(C)[C@H](C)C[C@H](OC(=O)c2ccc(O)cc2)[C@@]23C(=C[C@H](OC(C)=O)C[C@@H]12)[C@@H](OC(C)=O)O[C@H]3OC(C)=O [CASEARBORIN E]	290 nM	290 nM
